# Assay results taken from patent publication US12508259B2, “Pharmaceutical formulations containing Nalbuphine” (Humanwell Pharmaceutical US, Inc., priority 2022, dated 2025).
# Counter-ions that a name gives are not always drawn. Like-named read-outs stand apart in the source and are kept apart here.
# Tests used:
# [1] = commercially available Nalbuphine hydrochloride; cited from earlier work
# [2] = Nalbuphine solubility in different acids (overnight stirring, HPLC); assay type: physicochemical; conditions: approx. 0.5 mmol/mL acid; for solubility: aqueous buffer, thermodynamic from solid, Nalbuphine base Solubility
# Protocol: A preliminary assessment of Nalbuphine solubility in different acids was performed. After overnight continuous stirring, the suspensions were centrifuged, and supernatants were filtered through a 0.2 μm filter.
Structure (SMILES),solubility [1],"solubility ([2]; DL-malic acid solution, in DL-Malic acid)","solubility ([2]; acetic acid solution, in Acetic acid)","solubility ([2]; citric acid solution, in Citric acid)","solubility ([2]; hydrochloric acid solution, in Hydrochloride acid)",Nalbuphine base Solubility ([2]; in Citric acid),Nalbuphine base Solubility ([2]; in Sulfuric acid),"solubility ([2]; lactic acid solution, in Lactic acid)","solubility ([2]; phosphoric acid solution, in Phosphoric acid)","solubility ([2]; succinic acid solution, in Succinic acid)","solubility ([2]; sulfuric acid solution, in Sulfuric acid)","solubility ([2]; tartaric acid solution, in Tartaric acid)"
Oc1ccc2c3c1O[C@H]1[C@@H](O)CC[C@@]4(O)[C@@H](C2)N(CC2CCC2)CC[C@]314 [Nalbuphine hydrochloride],approximately 30 mg/mL,,,,,,,,,,,
"Oc1ccc2c3c1O[C@H]1[C@@H](O)CC[C@@]4(O)[C@@H](C2)N(CC2CCC2)CC[C@]314 [Nalbuphine base, N-cyclobutylmethyl-14-hydroxydihydronormorphine]",,630 mM,420 mM,> 1000 mM,90 mM,1070 mM,~1120 mM,460 mM,530 mM,480 mM,> 1000 mM,930 mM
